According to US11053213B2, “Pharmaceutical compounds” (ALMAC DISCOVERY LIMITED, priority 2016, dated 2021):

The molecules below were run against USP19 (Homo sapiens (Human), UniProt O94966) (assay: USP19 activity assay (fluorescence polarisation, Ubiquitin-Lys-TAMRA substrate)). Settings: full-length USP19 2.5 nM, 30 min pre-incubation, Ub substrate 500 nM; average of at least two duplicate experiments.
Format: biochemical
Method: Unless otherwise stated, all other reagents were purchased from Sigma. Enzymatic reactions were conducted in black flat bottom polystyrene 384-well plates (Nunc) and 30 μL total volume. […] Inhibitors were stored as 10 mM DMSO stocks in an inert environment (low humidity, dark, low oxygen, room temperature) using the Storage Pod System and serial dilutions were prepared in buffer just prior to the assay (from 200 μM to 2 pM, 8-18 data point curve). Following incubation at RT for 30 min, the enzymatic reactions were initiated by dispensing the Ub substrate (500 nM, 10 μL). FP was measured every 15 min over a period of 90 min (within the linear range of the assay) using a Synergy 4 plate reader (BioTek) exciting at 530 nm and measuring the amount of parallel and perpendicular light at 575 nm. The FP signal was subsequently normalised to the no compound control.

Chain of USP19 (O94966 whole entry): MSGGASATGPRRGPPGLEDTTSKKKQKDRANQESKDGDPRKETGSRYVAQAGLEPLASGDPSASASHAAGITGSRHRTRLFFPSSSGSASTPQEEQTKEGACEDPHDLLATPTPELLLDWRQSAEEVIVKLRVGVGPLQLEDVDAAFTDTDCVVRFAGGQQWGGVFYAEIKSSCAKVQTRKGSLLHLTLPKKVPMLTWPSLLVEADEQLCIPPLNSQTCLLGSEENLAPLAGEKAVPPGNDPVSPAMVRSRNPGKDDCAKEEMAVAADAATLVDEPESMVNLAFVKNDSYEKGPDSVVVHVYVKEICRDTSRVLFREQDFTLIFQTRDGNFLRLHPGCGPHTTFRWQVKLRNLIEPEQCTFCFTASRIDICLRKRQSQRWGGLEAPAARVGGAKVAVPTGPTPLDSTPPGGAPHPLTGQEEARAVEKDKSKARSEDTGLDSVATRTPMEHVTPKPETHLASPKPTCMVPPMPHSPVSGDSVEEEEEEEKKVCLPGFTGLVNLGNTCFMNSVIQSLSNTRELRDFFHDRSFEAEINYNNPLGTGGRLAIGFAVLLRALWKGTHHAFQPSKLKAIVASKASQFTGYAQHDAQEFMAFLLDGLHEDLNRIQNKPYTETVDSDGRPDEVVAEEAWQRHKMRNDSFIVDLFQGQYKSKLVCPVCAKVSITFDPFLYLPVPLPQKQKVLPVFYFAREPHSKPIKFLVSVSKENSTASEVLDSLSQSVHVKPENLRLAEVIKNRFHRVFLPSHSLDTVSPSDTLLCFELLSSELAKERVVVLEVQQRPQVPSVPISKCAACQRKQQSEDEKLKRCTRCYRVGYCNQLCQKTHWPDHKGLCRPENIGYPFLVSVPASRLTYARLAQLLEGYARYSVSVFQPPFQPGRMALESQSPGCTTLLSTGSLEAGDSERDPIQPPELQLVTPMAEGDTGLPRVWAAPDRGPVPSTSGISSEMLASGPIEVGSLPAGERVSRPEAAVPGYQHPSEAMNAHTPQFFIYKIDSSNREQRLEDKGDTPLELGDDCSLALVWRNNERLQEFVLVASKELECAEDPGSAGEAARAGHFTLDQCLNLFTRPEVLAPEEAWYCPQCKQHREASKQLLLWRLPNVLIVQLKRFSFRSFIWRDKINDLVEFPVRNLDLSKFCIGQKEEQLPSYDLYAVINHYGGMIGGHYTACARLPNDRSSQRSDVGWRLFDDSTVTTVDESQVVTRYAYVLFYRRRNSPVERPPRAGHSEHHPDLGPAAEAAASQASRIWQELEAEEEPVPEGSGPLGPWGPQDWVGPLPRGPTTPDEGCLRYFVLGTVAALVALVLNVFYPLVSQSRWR

IC50, < 0.5 µM:
C[C@H](CC1CCCCC1)C(=O)N1CCC(O)(Cn2cc(C(=O)N(C)C)c(Cl)cc2=O)C2(CCCC2)C1 (stereo partly drawn) [Example 144, 4-chloro-1-((7-((R)-3-cyclohexyl-2-methylpropanoyl)-10-hydroxy-7-azaspiro[4.5]decan-10-yl)methyl)-N,N-dimethyl-6-oxo-1,6-dihydropyridine-3-carboxamide]
CN(C)C(=O)c1cn(C[C@]2(O)CCN(C(=O)[C@H](CO)CC3CCCCC3)CC2(C)C)c(=O)cc1-c1ccccc1 [Example 152, 1-(((S)-1-((S)-3-Cyclohexyl-2-(hydroxymethyl)propanoyl)-4-hydroxy-3,3-dimethylpiperidin-4-yl)methyl)-N,N-dimethyl-6-oxo-4-phenyl-1,6-dihydropyridine-3-carboxamide]
C[C@H](CC1CCCCC1)C(=O)N1CCC(O)(Cn2cc(C(=O)N(C)C)c(N(C)C)cc2=O)C2(CCCC2)C1 (stereo partly drawn) [Example 145, 1-((7-((R)-3-Cyclohexyl-2-methylpropanoyl)-10-hydroxy-7-azaspiro[4.5]decan-10-yl)methyl)-4-(dimethylamino)-N,N-dimethyl-6-oxo-1,6-dihydropyridine-3-carboxamide]
C[C@H](CC1CCC1)C(=O)N1CC[C@@](O)(Cn2cc(C(=O)N3CCNCC3)c(-c3ccccc3F)cc2=O)C(C)(C)C1 [Example 236, 1-(((S)-1-((R)-3-Cyclobutyl-2-methylpropanoyl)-4-hydroxy-3,3-dimethylpiperidin-4-yl)methyl)-4-(2-fluorophenyl)-5-(piperazine-1-carbonyl)pyridin-2(1H)-one]
O=C(c1cn(C[C@]2(O)CCN(C(=O)[C@H](CO)CC(F)(F)F)CC23CCCC3)c(=O)cc1-c1ccccc1)N1CCNCC1 [Example 249, 1-(((S)-10-Hydroxy-7-((S)-4,4,4-trifluoro-2-(hydroxymethyl)butanoyl)-7-azaspiro[4.5]decan-10-yl)methyl)-4-phenyl-5-(piperazine-1-carbonyl)pyridin-2(1H)-one]
CC(=O)N1CCN(C(=O)c2cn(CC3(O)CCN(C(=O)[C@H](C)CC4CCCCC4)CC3(C)C)c(=O)cc2-c2ccccc2)CC1 (stereo partly drawn) [Example 169, 5-(4-Acetylpiperazine-1-carbonyl)-1-((1-((R)-3-cyclohexyl-2-methylpropanoyl)-4-hydroxy-3,3-dimethylpiperidin-4-yl)methyl)-4-phenylpyridin-2(1H)-one]
C[C@H](CC1CCC1)C(=O)N1CC[C@@](O)(Cn2cc(C(=O)N3CCNCC3)c(-c3ccccc3)cc2=O)C2(CCCC2)C1 [Example 215, 1-(((S)-7-((R)-3-Cyclobutyl-2-methylpropanoyl)-10-hydroxy-7-azaspiro[4.5]decan-10-yl)methyl)-4-phenyl-5-(piperazine-1-carbonyl)pyridin-2(1H)-one]
C[C@H](CC1CCCCC1)C(=O)N1CC[C@@](O)(Cn2cc(C(=O)N3CCNC[C@H]3CO)c(-c3ccccc3)cc2=O)C(C)(C)C1 [Example 208, 1-(((S)-1-((R)-3-Cyclohexyl-2-methylpropanoyl)-4-hydroxy-3,3-dimethylpiperidin-4-yl)methyl)-5-((S)-2-(hydroxymethyl)piperazine-1-carbonyl)-4-phenylpyridin-2(1H)-one]
C[C@H](CC1CCCCC1)C(=O)N1CC[C@@](O)(Cn2cc(C(=O)N(C)C)c(C3CC3)cc2=O)C2(CCCC2)C1 [Example 232, 1-(((S)-7-((R)-3-Cyclohexyl-2-methylpropanoyl)-10-hydroxy-7-azaspiro[4.5]decan-10-yl)methyl)-4-cyclopropyl-N,N-dimethyl-6-oxo-1,6-dihydropyridine-3-carboxamide]

IC50, 5 to 50 µM:
C[C@H](CC(=O)N1CCC(O)(Cn2cnc(-c3cccc4cnn(C)c34)cc2=O)CC1)c1ccccc1 [Example 16, (R)-3-((4-Hydroxy-1-(3-phenylbutanoyl)piperidin-4-yl)methyl)-6-(1-methyl-1H-indazol-7-yl)pyrimidin-4(3H)-one]
C[C@H](CC(=O)N1CCC(O)(Cn2cc(-c3ccccc3)c(-c3ccccc3)cc2=O)CC1)c1ccccc1 [Example 98, (R)-1-((4-Hydroxy-1-(3-phenylbutanoyl)piperidin-4-yl)methyl)-4,5-diphenylpyridin-2(1H)-one]
CC(C)(CC(=O)N1CCC(O)(Cn2cnc(-c3ccccc3F)cc2=O)C(C)(C)C1)c1ccccc1 (racemic) [Example 70, (R,S)-6-(2-Fluorophenyl)-3-((4-hydroxy-3,3-dimethyl-1-(3-methyl-3-phenylbutanoyl)piperidin-4-yl)methyl)pyrimidin-4(3H)-one]
C[C@H](CC1CCCCC1)C(=O)N1CCC(O)(Cn2cnccc2=O)C2(CCCC2)C1 (stereo partly drawn) [Example 134, 3-((7-((R)-3-Cyclohexyl-2-methylpropanoyl)-10-hydroxy-7-azaspiro[4.5]decan-10-yl)methyl)pyrimidin-4(3H)-one]
CN(C)C(=O)c1cn(CC2(O)CCN(C(=O)COC3CCC3)CC23CCCC3)c(=O)cc1-c1ccccc1 (stereo not drawn) [Example 201, 1-((7-(2-Cyclobutoxyacetyl)-10-hydroxy-7-azaspiro[4.5]decan-10-yl)methyl)-N,N-dimethyl-6-oxo-4-phenyl-1,6-dihydropyridine-3-carboxamide]
C=C(C)c1cc(=O)n(CC2(O)CCN(C(=O)C[C@@H](C)c3ccccc3)CC2)cc1-c1ccccc1 [Example 12, (R)-1-((4-Hydroxy-1-(3-phenylbutanoyl)piperidin-4-yl)methyl)-5-phenyl-4-(prop-1-en-2-yl)pyridine-2(1H)-one]

IC50, 0.5 to 5 µM:
CCN(CC)C(=O)c1cn(CC2(O)CCN(C(=O)C[C@@H](C)c3ccccc3)CC2)c(=O)cc1-c1ccccc1 [Example 75, (R)—N,N-Diethyl-1-((4-hydroxy-1-(3-phenylbutanoyl)piperidin-4-yl)methyl)-6-oxo-4-phenyl-1,6-dihydropyridine-3-carboxamide]
CC(CC(=O)N1CCC(O)(Cn2cnc(-c3ccccc3F)cc2=O)C(C)(C)C1)C1CCCCC1 (stereo not drawn) [Example 76, 3-((1-(3-Cyclohexylbutanoyl)-4-hydroxy-3,3-dimethylpiperidin-4-yl)methyl)-6-(2-fluorophenyl)pyrimidin-4(3H)-one]
C[C@H](CC(=O)N1CCC(O)(Cn2cc(C(=O)N3CCC(CO)CC3)c(-c3ccccc3)cc2=O)CC1)c1ccccc1 [Example 117, (R)-1-((4-Hydroxy-1-(3-phenylbutanoyl)piperidin-4-yl)methyl)-5-(4-(hydroxymethyl)piperidine-1-carbonyl)-4-phenylpyridin-2(1H)-one]
C[C@H](CC1CCCCC1)C(=O)N1CC[C@@](O)(Cn2cc(C(=O)N(C)C)c(C3CC3)cc2=O)C(C)(C)C1 [Example 220, 1-(((S)-1-((R)-3-Cyclohexyl-2-methylpropanoyl)-4-hydroxy-3,3-dimethylpiperidin-4-yl)methyl)-4-cyclopropyl-N,N-dimethyl-6-oxo-1,6-dihydropyridine-3-carboxamide]
C[C@H](CC1CCCCC1)C(=O)N1CCC(O)(Cn2cc(C(=O)O)c(-c3ccccc3)cc2=O)C(C)(C)C1 (stereo partly drawn) [Example 241, 1-((1-((R)-3-Cyclohexyl-2-methylpropanoyl)-4-hydroxy-3,3-dimethylpiperidin-4-yl)methyl)-6-oxo-4-phenyl-1,6-dihydropyridine-3-carboxylic acid]
C[C@H](CC1CCCCC1)C(=O)N1CCC(O)(Cn2cc(-c3cccc(CN)c3)c(-c3ccccc3F)cc2=O)CC1 [Example 52, (R)-5-(3-(Aminomethyl)phenyl)-1-((1-(3-cyclohexyl-2-methylpropanoyl)-4-hydroxypiperidin-4-yl)methyl)-4-(2-fluorophenyl)pyridin-2(1H)-one]
CN(C)C(=O)c1cn(CC2(O)CCN(C(=O)C[C@H](c3ccccc3)C(F)F)CC23CCCC3)c(=O)cc1-c1ccccc1 (stereo partly drawn) [Example 181, 1-((7-((R)-4,4-Difluoro-3-phenylbutanoyl)-10-hydroxy-7-azaspiro[4.5]decan-10-yl)methyl)-N,N-dimethyl-6-oxo-4-phenyl-1,6-dihydropyridine-3-carboxamide]
C[C@H](CC(=O)N1CCC(O)(Cn2cc(C(=O)N(C)C)c(-c3ccccc3)cc2=O)C2(CCCC2)C1)c1ccccc1 (stereo partly drawn) [Example 185, 1-((10-Hydroxy-7-((R)-3-phenylbutanoyl)-7-azaspiro[4.5]decan-10-yl)methyl)-N,N-dimethyl-6-oxo-4-phenyl-1,6-dihydropyridine-3-carboxamide]

IC50, 50 to 250 µM:
C[C@H](CC(=O)N1CCC(O)(Cn2ccc(-c3ccccc3)cc2=O)CC1)c1ccccc1 [Example 27, (R)-1-((4-Hydroxy-1-(3-phenylbutanoyl)piperidin-4-yl)methyl)-4-phenylpyridin-2(1H)-one]
Cc1cn(CC2(O)CCN(C(=O)C[C@@H](C)c3ccccc3)CC2)c(=O)cc1-c1ccccc1 [Example 111, (R)-1-((4-Hydroxy-1-(3-phenylbutanoyl)piperidin-4-yl)methyl)-5-methyl-4-phenylpyridin-2(1H)-one]
O=C(CCC1CCCCC1)N1C[C@H]2CC[C@@H](C1)C2(O)Cn1cnc(-c2ccccc2F)cc1=O (stereo partly drawn) [Example 113, 3-(((1R,5S)-3-(3-Cyclohexylpropanoyl)-8-hydroxy-3-azabicyclo[3.2.1]octan-8-yl)methyl)-6-(2-fluorophenyl)pyrimidin-4(3H)-one]
C[C@H](CC(=O)N1CCC(O)(Cn2cc(C=O)c(-c3ccccc3)cc2=O)CC1)c1ccccc1 [Example 45, (R)-1-((4-Hydroxy-1-(3-phenylbutanoyl)piperidin-4-yl)methyl)-6-oxo-4-phenyl-1,6-dihydropyridine-3-carbaldehyde]
